Reference: patent US20220332774A1, “THERAPEUTIC MITOCHONDRIAL PEPTIDES” (priority 2019, published 2022)

Experiments:
3T3-L1 Mouse Adipocytes = test: Free fatty acid levels in cultured 3T3-L1 mouse adipocytes (isoproterenol stimulated); assay type: cell-based; settings: free fatty acid in medium; 5 μM peptide, 20-22 h pre-incubation then 3 h with 0.1 nM isoproterenol; isoproterenol alone = 100%
In short: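 3T3-L1 cells differentiated 12 days, insulin withdrawn, then peptides added on day 13 at 5 μM (0.1% DMSO) for 20-22 h at 37° C. After 3 h in assay buffer, medium free fatty acids read at 540 nm. Values expressed as percent of 0.1 nM isoproterenol-alone control.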

C2C12 Cells = test: Glucose utilization in cultured C2C12 cells (myotubes); assay type: cell-based, mouse; settings: glucose concentration in medium relative to untreated cells; 5 μM peptide, 22 h
In short: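 Differentiated mouse myotubes (5 days in 2% horse serum) serum-starved 5 h, then treated 22 h at 37 °C with peptide at 5 μM final (0.1% DMSO) in low-glucose (1 g/L) DMEM. Glucose remaining in medium measured colorimetrically at 570 nm. Expressed as percent of untreated control, from 2–3 experiments in triplicate.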

H4-IIE Cells = test: Glucose production in cultured H4-IIE cells; assay type: cell-based, rat; settings: glucose concentration in medium relative to untreated cells; 5 μM peptide, 24 h
In short: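 Rat H4-IIE hepatoma cells primed overnight in glucose-free DMEM with 2 mM pyruvate and 10 mM lactate, then treated 24 h at 37 °C with 5 μM peptide (0.1% DMSO; concentration assumes ~2000 Da). Medium glucose measured colorimetrically at 570 nm. Values are percent of untreated-cell glucose production; 0.5-1 nM insulin served as inhibitor reference.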

Substance: 111 (MQRWFFMSLVVVVVRA) [compound 111]
- Percent of Isoproterenol Control Activity (3T3-L1 Mouse Adipocytes): 89%
- Percent of Control Activity (C2C12 Cells): 101%
- Percent of Control Activity (H4-IIE Cells): 91%

Substance: 112 (MQSGVLQSLAVTEIKYCNLL) [compound 112]
- Percent of Isoproterenol Control Activity (3T3-L1 Mouse Adipocytes): 103%
- Percent of Control Activity (C2C12 Cells): 93%
- Percent of Control Activity (H4-IIE Cells): 144%

Substance: 113 (MQTKSLQSPQ) [compound 113]
- Percent of Isoproterenol Control Activity (3T3-L1 Mouse Adipocytes): 102%
- Percent of Control Activity (C2C12 Cells): 97%
- Percent of Control Activity (H4-IIE Cells): 134%

Substance: 114 (MQWAILGLFVVG) [compound 114]
- Percent of Isoproterenol Control Activity (3T3-L1 Mouse Adipocytes): 76%
- Percent of Control Activity (C2C12 Cells): 107%
- Percent of Control Activity (H4-IIE Cells): 118%

Substance: 116 (MSGVRKEVSLL) [compound 116]
- Percent of Isoproterenol Control Activity (3T3-L1 Mouse Adipocytes): 90%
- Percent of Control Activity (C2C12 Cells): 99%
- Percent of Control Activity (H4-IIE Cells): 123%

Substance: 117 (MSKKIPATTMVLEWS) [compound 117]
- Percent of Isoproterenol Control Activity (3T3-L1 Mouse Adipocytes): 98%
- Percent of Control Activity (C2C12 Cells): 91%
- Percent of Control Activity (H4-IIE Cells): 121%

Substance: 118 (MSLSYLQDSTY) [compound 118]
- Percent of Isoproterenol Control Activity (3T3-L1 Mouse Adipocytes): 98%
- Percent of Control Activity (C2C12 Cells): 83%
- Percent of Control Activity (H4-IIE Cells): 126%

Substance: 119 (MSLTPHILPTMP) [compound 119]
- Percent of Isoproterenol Control Activity (3T3-L1 Mouse Adipocytes): 97%
- Percent of Control Activity (C2C12 Cells): 109%
- Percent of Control Activity (H4-IIE Cells): 122%

Substance: 120 (MSMPVLGWQWG) [compound 120]
- Percent of Isoproterenol Control Activity (3T3-L1 Mouse Adipocytes): 95%
- Percent of Control Activity (C2C12 Cells): 98%
- Percent of Control Activity (H4-IIE Cells): 118%

Substance: 121 (MSNMKTFSSA) [compound 121]
- Percent of Isoproterenol Control Activity (3T3-L1 Mouse Adipocytes): 118%
- Percent of Control Activity (C2C12 Cells): 99%
- Percent of Control Activity (H4-IIE Cells): 95%

Substance: 122 (MSNNMAFSTFKG) [compound 122]
- Percent of Isoproterenol Control Activity (3T3-L1 Mouse Adipocytes): 113%
- Percent of Control Activity (C2C12 Cells): 103%
- Percent of Control Activity (H4-IIE Cells): 97%

Substance: 123 (MSRNHSFCLNYMPIRFSLILFVVTH) [compound 123]
- Percent of Isoproterenol Control Activity (3T3-L1 Mouse Adipocytes): 104%
- Percent of Control Activity (C2C12 Cells): 88%
- Percent of Control Activity (H4-IIE Cells): 106%

Substance: 124 (MSSAWIIWFRLFSI) [compound 124]
- Percent of Isoproterenol Control Activity (3T3-L1 Mouse Adipocytes): 113%
- Percent of Control Activity (C2C12 Cells): 96%
- Percent of Control Activity (H4-IIE Cells): 97%

Substance: 125 (MSSDEFANTMPV) [compound 125]
- Percent of Isoproterenol Control Activity (3T3-L1 Mouse Adipocytes): 115%
- Percent of Control Activity (C2C12 Cells): 109%
- Percent of Control Activity (H4-IIE Cells): 96%

Substance: 126 (MSTHLPNYHTNLSYR) [compound 126]
- Percent of Isoproterenol Control Activity (3T3-L1 Mouse Adipocytes): 108%
- Percent of Control Activity (C2C12 Cells): 110%
- Percent of Control Activity (H4-IIE Cells): 87%

Substance: 127 (MSTINQQVIITLTVNPTQACS) [compound 127]
- Percent of Isoproterenol Control Activity (3T3-L1 Mouse Adipocytes): 104%
- Percent of Control Activity (C2C12 Cells): 109%
- Percent of Control Activity (H4-IIE Cells): 88%

Substance: 128 (MSWSNIEVVNPIVDMDS) [compound 128]
- Percent of Isoproterenol Control Activity (3T3-L1 Mouse Adipocytes): 116%
- Percent of Control Activity (C2C12 Cells): 103%
- Percent of Control Activity (H4-IIE Cells): 93%

Substance: 129 (MSYRAHTPKMLVMPFPY) [compound 129]
- Percent of Isoproterenol Control Activity (3T3-L1 Mouse Adipocytes): 115%
- Percent of Control Activity (C2C12 Cells): 110%
- Percent of Control Activity (H4-IIE Cells): 90%

Substance: 130 (MTAPVKLQGVWM) [compound 130]
- Percent of Isoproterenol Control Activity (3T3-L1 Mouse Adipocytes): 110%
- Percent of Control Activity (C2C12 Cells): 103%
- Percent of Control Activity (H4-IIE Cells): 97%

Substance: 131 (MTELLTPNWTNLSPY) [compound 131]
- Percent of Isoproterenol Control Activity (3T3-L1 Mouse Adipocytes): 110%
- Percent of Control Activity (C2C12 Cells): 107%
- Percent of Control Activity (H4-IIE Cells): 97%

Substance: 133 (MTLGHNMIYLHTS) [compound 133]
- Percent of Isoproterenol Control Activity (3T3-L1 Mouse Adipocytes): 107%
- Percent of Control Activity (C2C12 Cells): 100%
- Percent of Control Activity (H4-IIE Cells): 91%

Substance: 134 (MTNIFGVWAR) [compound 134]
- Percent of Isoproterenol Control Activity (3T3-L1 Mouse Adipocytes): 111%
- Percent of Control Activity (C2C12 Cells): 101%
- Percent of Control Activity (H4-IIE Cells): 92%

Substance: 135 (MTNPENQNERKSVRFIHCPHNP) [compound 135]
- Percent of Isoproterenol Control Activity (3T3-L1 Mouse Adipocytes): 127%
- Percent of Control Activity (C2C12 Cells): 109%
- Percent of Control Activity (H4-IIE Cells): 93%

Substance: 136 (MTNTLNSIHPPLP) [compound 136]
- Percent of Isoproterenol Control Activity (3T3-L1 Mouse Adipocytes): 124%
- Percent of Control Activity (C2C12 Cells): 99%
- Percent of Control Activity (H4-IIE Cells): 94%

Substance: 137 (MTSLHNSFYSKDTSLRTPLMTP) [compound 137]
- Percent of Isoproterenol Control Activity (3T3-L1 Mouse Adipocytes): 115%
- Percent of Control Activity (C2C12 Cells): 116%
- Percent of Control Activity (H4-IIE Cells): 96%

Substance: 138 (MTSPKIQNNNTPDHTANNQY) [compound 138]
- Percent of Isoproterenol Control Activity (3T3-L1 Mouse Adipocytes): 111%
- Percent of Control Activity (C2C12 Cells): 115%
- Percent of Control Activity (H4-IIE Cells): 92%

Substance: 139 (MTWPTEQVTLGMTAQSYS) [compound 139]
- Percent of Isoproterenol Control Activity (3T3-L1 Mouse Adipocytes): 91%
- Percent of Control Activity (C2C12 Cells): 100%
- Percent of Control Activity (H4-IIE Cells): 97%

Substance: 140 (MTYSPEQSQLQYMHQQTMFNQ) [compound 140]
- Percent of Isoproterenol Control Activity (3T3-L1 Mouse Adipocytes): 100%
- Percent of Control Activity (C2C12 Cells): 91%
- Percent of Control Activity (H4-IIE Cells): 97%

Substance: 141 (MVEGWLLYLLVSMG) [compound 141]
- Percent of Isoproterenol Control Activity (3T3-L1 Mouse Adipocytes): 96%
- Percent of Control Activity (C2C12 Cells): 97%
- Percent of Control Activity (H4-IIE Cells): 103%

Substance: 142 (MVEVGYNVVRVV) [compound 142]
- Percent of Isoproterenol Control Activity (3T3-L1 Mouse Adipocytes): 97%
- Percent of Control Activity (C2C12 Cells): 95%
- Percent of Control Activity (H4-IIE Cells): 103%

Substance: 143 (MVGYLIPVWVLAIVCSDMLKPLS) [compound 143]
- Percent of Isoproterenol Control Activity (3T3-L1 Mouse Adipocytes): 107%
- Percent of Control Activity (C2C12 Cells): 98%
- Percent of Control Activity (H4-IIE Cells): 111%

Substance: 144 (MVIICFEVSLISHCWVVISRLLM) [compound 144]
- Percent of Isoproterenol Control Activity (3T3-L1 Mouse Adipocytes): 96%
- Percent of Control Activity (C2C12 Cells): 105%
- Percent of Control Activity (H4-IIE Cells): 105%

Substance: 145 (MVKPHLQNASI) [compound 145]
- Percent of Isoproterenol Control Activity (3T3-L1 Mouse Adipocytes): 94%
- Percent of Control Activity (C2C12 Cells): 103%
- Percent of Control Activity (H4-IIE Cells): 102%

Substance: 146 (MVLEFGLVGYFLLGGGSGWV) [compound 146]
- Percent of Isoproterenol Control Activity (3T3-L1 Mouse Adipocytes): 97%
- Percent of Control Activity (C2C12 Cells): 106%
- Percent of Control Activity (H4-IIE Cells): 99%

Substance: 147 (MVLFLLGMVG) [compound 147]
- Percent of Isoproterenol Control Activity (3T3-L1 Mouse Adipocytes): 99%
- Percent of Control Activity (C2C12 Cells): 107%
- Percent of Control Activity (H4-IIE Cells): 98%

Substance: 148 (MVLNLRVHRLRRTNLQLLHTSPIIP) [compound 148]
- Percent of Isoproterenol Control Activity (3T3-L1 Mouse Adipocytes): 103%
- Percent of Control Activity (C2C12 Cells): 103%
- Percent of Control Activity (H4-IIE Cells): 109%

Substance: 149 (MVLSSPPIFRMSCSLL) [compound 149]
- Percent of Isoproterenol Control Activity (3T3-L1 Mouse Adipocytes): 100%
- Percent of Control Activity (C2C12 Cells): 100%
- Percent of Control Activity (H4-IIE Cells): 97%

Substance: 150 (MVLWWFGGSG) [compound 150]
- Percent of Isoproterenol Control Activity (3T3-L1 Mouse Adipocytes): 94%
- Percent of Control Activity (C2C12 Cells): 102%
- Percent of Control Activity (H4-IIE Cells): 87%

Substance: 151 (MVNGRRTSVGV) [compound 151]
- Percent of Isoproterenol Control Activity (3T3-L1 Mouse Adipocytes): 81%
- Percent of Control Activity (C2C12 Cells): 95%
- Percent of Control Activity (H4-IIE Cells): 90%

Substance: 152 (MVRMLLVQWW) [compound 152]
- Percent of Isoproterenol Control Activity (3T3-L1 Mouse Adipocytes): 105%
- Percent of Control Activity (C2C12 Cells): 110%
- Percent of Control Activity (H4-IIE Cells): 89%

Substance: 153 (MVSMMTSMGM) [compound 153]
- Percent of Isoproterenol Control Activity (3T3-L1 Mouse Adipocytes): 93%
- Percent of Control Activity (C2C12 Cells): 104%
- Percent of Control Activity (H4-IIE Cells): 91%

Substance: 154 (MVSSGDWYSWCE) [compound 154]
- Percent of Isoproterenol Control Activity (3T3-L1 Mouse Adipocytes): 89%
- Percent of Control Activity (C2C12 Cells): 107%
- Percent of Control Activity (H4-IIE Cells): 98%

Substance: 155 (MVVCMVITFIWSCTKIFGA) [compound 155]
- Percent of Isoproterenol Control Activity (3T3-L1 Mouse Adipocytes): 97%
- Percent of Control Activity (C2C12 Cells): 107%
- Percent of Control Activity (H4-IIE Cells): 95%
